Publication PMC4464647, “ANO1 (TMEM16A) in pancreatic ductal adenocarcinoma (PDAC)” (Pflugers Archiv, 2014)
d = 2'-deoxy (DNA)

Experiments:
Assay type in all cases: cell-based, human
[1] = test system: BxPC-3 cells; assay: Scratch wound healing assay; settings: 5 μM aphidicolin; for effect on wound closure / migratory behavior: BxPC-3, inhibitor 20 μM
Description: Cells were seeded into Essen ImageLock 96-well plates. Cells were transfected with siRNA shortly after cells completely attached at 80 % confluency. […] The wound confluence was obtained and analyzed by using the IncuCyte phase-contrast imaging and scratch wound assay system and software (Essen Bioscience, USA). Wound closure was assessed by comparing the mean relative wound density (%RWD) according to the following formula: % RWD = 100 × w(t) − w(0)/[…]. Here, w(t) is the density of wounded area at time t and c(t) is the density of cell region at time t. Each experiment was conducted in triplicates.
We therefore assessed a possible contribution of ANO1 in PDAC cell migration using wound healing assay. […] The experiments were conducted in the presence of 5 μM aphidicolin to rule out a possible effect on cell proliferation. […] AsPC-1 cells were therefore not well suited for studies of lateral motility.
Fig. 9 ANO1 supports migration of PDAC cells. Wound healing assay is shown as relative wound density (density of wounded area relative to confluency of cell region) over time. Aphidicolin (5 μM) was added to stop proliferation. a AsPC-1 cells and b BxPC-3 cells after transfection with either scrambled siRNA (5 nM) or siRNA targeting ANO1 (50 nM). c BxPC-3 cells in presence of different inhibitors. Data shown represents mean ± s.e.m. of n = 4 experiments; each run was carried out in triplicates

[2] = test system: VRAC; assay: Whole-cell patch-clamp of swelling-activated (VRAC) currents, hypotonic bath, 0 μM Ca2+ pipette; settings: HPDE and BxPC-3 cells, inhibitor 20 μM, Vm = +65 mV
Description: Cells were grown on poly-L-lysine coated coverslips. For knockdown experiments, cells were transfected with siRNA targeting ANO1 or scrambled siRNA shortly after complete attachment of the cells (approx. 3 h after plating). Currents were measured 36–48 h after transfection. Whole-cell patch-clamp recordings were performed using the Axopatch 200B amplifier interfaced to a Digidata 1440A controlled by pClamp10 software (Molecular Devices, USA). Analogue signals were acquired at 2.5 kHz and filtered at 1 kHz. […] An agar bridge made of 3 % agar and 97 % of the bath solution containing NMDG-Cl (below) was used as reference electrode. Current activations were recorded from an output holding potential, V out = 0 mV with ramp protocols spanning from −100 to 100 mV over 1 s and run continuously with 15-s intervals. […] Liquid junction potentials (V lj) were estimated as described in [10] with membrane potentials calculated as, V m = V out − V lj. […] Instantaneous currents were measured 1 ms after each voltage step. […]
One micromolar free Ca^2+ pipette solution include the following (in mM): 100 CsAsp, 40 CsCl, 4.34 CaCl2, 4 Na2ATP, 1 MgCl2, 5 EGTA, 10 HEPES, pH 7.2, osmolality 295 mosmol/kg or 0 μM free Ca^2+ solution containing no CaCl2 and 10 mM EGTA. […] All osmolalities were measured in a Wescor Vapro model 5520 osmometer (Wescor Inc., USA) calibrated by the manufacturer’s Optimol standard solutions. […]

[3] = test system: HPDE, Capan-1, AsPC-1, and BxPC-3 cells; assay: BrdU incorporation cell proliferation assay, all tested cell lines
Description: To assess cell proliferation and apoptosis, cells were plated in duplicates on a 96-well plate and incubated in 100 μl of the cell line appropriate media described above. Cells were transfected with siRNA soon after complete attachment (approx. 3 h after seeding). Cells were treated with vehicle, 20 μM gemcitabine, 20 μM T16Ainh-A01, or 10 μM free NS3728 (see below) after culture in a humidified 37 °C and 5 % CO2 incubator overnight. BrdU incorporation was measured using Cell Proliferation ELISA, BrdU (chemiluminescent) (Roche Diagnostics A/S, Denmark) following the manufacturer’s instructions. Caspases 3, 6, and 7 activation was evaluated using Homogeneous Caspases Assay (fluorimetric) (Roche Diagnostics A/S, Denmark).
Fig. 7 VRAC, but not ANO1, regulates cellular proliferation. a Summary of BrdU incorporation in HPDE, Capan-1, AsPC-1, and BxPC-3 cells after various treatments as indicated. Cells were transfected shortly after complete attachment (approx. 3 h) and BrdU incorporation was assessed 36 h after transfection. To investigate effect of inhibitors, cells were incubated for 24 h with respective inhibitor. Values shown are relative to appropriate control. Data shown represents mean ± s.e.m. of n = 4–6 individual experiments. **p ≤ 0.01 and ***p ≤ 0.001 when compared with control

Row | Molecule | effect on wound closure / migratory behavior [1] | effect on VRAC currents [2] | proliferation (BrdU incorporation) ([3]; ANO1-overexpressing cancer cells, 20 μM, 24 h) | migration decreased to ([1]; BxPC-3, siRNA 50 nM, after 60 h) [%] | proliferation (BrdU incorporation) ([3]; siRNA 50 nM vs mock 5 nM, 36 h after transfection, any of the tested cell lines)
1 | CC(C)(C)C1CCc2c(sc(NC(=O)c3ccco3)c2C(=O)O)C1 (stereo not shown) [CaCCinh-A01, 6-(1,1-dimethylethyl)-2-[(2-furanylcarbonyl)amino]-4,5,6,7-tetrahydrobenzo[b]thiophene-3-carboxylic acid] | seemed to slow down wound closure; however, this did not reach significance | Neither T16Ainh-A01 nor CaCCinh-A01 inhibited the VRAC currents significantly | – | – | –
2 | CCc1c(C)nc(SCC(=O)Nc2nc(-c3ccc(OC)cc3)cs2)[nH]c1=O [T16Ainh-A01, 2-[(5-Ethyl-1,6-dihydro-4-methyl-6-oxo-2-pyrimidinyl)thio]-N-[4-(4-methoxyphenyl)-2-thiazolyl]acetamide] | no detectable effect on migratory behavior | Neither T16Ainh-A01 nor CaCCinh-A01 inhibited the VRAC currents significantly | none of the ANO1-overexpressing cancer cells showed any significant decrease in proliferation | – | –
3 | siRNA targeting ANO1: Predesigned siRNA oligo from Sigma-Aldrich, 5′-CCUUCAACGUCAGUGACUU[dT][dT]-3′, 5′-AAGUCACUGACGUUGAAGG[dT][dT]-3′ (RNA, 3' dTdT, backbone not given here) | – | – | – | 30 ± 8 | did not cause any significant change in proliferation
